Key:
[1] = Metabolic stability, incubation with human liver cytosol; assay type: in vitro ADME; conditions: 1 µM test compound, 1 mg/mL protein
CYP1A2 = target: T1, CYP1A2 (Homo sapiens, UniProt P05177); test: CYP inhibition in human liver microsomes, CYP1A2
T1 sequence (P05177 1-516): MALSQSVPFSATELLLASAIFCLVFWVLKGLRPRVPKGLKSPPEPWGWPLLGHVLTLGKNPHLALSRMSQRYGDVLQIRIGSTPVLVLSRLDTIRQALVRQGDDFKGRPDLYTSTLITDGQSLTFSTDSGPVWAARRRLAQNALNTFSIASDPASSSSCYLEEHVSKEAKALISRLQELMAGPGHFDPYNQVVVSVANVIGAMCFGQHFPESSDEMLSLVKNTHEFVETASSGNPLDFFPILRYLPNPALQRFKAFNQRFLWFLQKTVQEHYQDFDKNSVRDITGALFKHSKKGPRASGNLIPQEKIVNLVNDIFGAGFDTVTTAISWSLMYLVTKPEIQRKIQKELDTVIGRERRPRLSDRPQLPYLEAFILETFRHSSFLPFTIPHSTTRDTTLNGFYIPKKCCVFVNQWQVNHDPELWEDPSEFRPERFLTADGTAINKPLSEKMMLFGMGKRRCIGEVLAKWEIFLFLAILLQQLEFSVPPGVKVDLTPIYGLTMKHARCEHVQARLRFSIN

CYP3A4 [2] = target: T2, CYP3A4 (Homo sapiens, UniProt P08684); test: in vitro; conditions: microsomes, pH 7.4
CYP2C9 = CYP2C9 (Homo sapiens, UniProt P11712); test: CYP inhibition in human liver microsomes, CYP2C9
rCYP3A4 = rCYP3A4 (Homo sapiens, UniProt P08684)
CYP3A4 [3] = target: T2, CYP3A4; test: in vitro; conditions: microsomes, pH 7.4, % Inhibition of Control Activity CYP3A4 (substrate, testosterone)
rCYP1A2 = target: T3, rCYP1A2 (Homo sapiens, UniProt P05177); test: Metabolic stability / reaction phenotyping with recombinant human CYP1A2
T3 sequence (P05177 1-516): T1 sequence (P05177 1-516)

[4] = Metabolic stability, incubation with human liver microsomes; conditions: 1 µM test compound, 0.5 mg/mL protein
rCYP2C9 = rCYP2C9 (Homo sapiens, UniProt P11712); test: Metabolic stability / reaction phenotyping with recombinant human CYP2C9
CYP2C8 = target: T4, CYP2C8 (Homo sapiens, UniProt P10632); test: CYP inhibition in human liver microsomes, CYP2C8
T4 sequence (P10632 1-490): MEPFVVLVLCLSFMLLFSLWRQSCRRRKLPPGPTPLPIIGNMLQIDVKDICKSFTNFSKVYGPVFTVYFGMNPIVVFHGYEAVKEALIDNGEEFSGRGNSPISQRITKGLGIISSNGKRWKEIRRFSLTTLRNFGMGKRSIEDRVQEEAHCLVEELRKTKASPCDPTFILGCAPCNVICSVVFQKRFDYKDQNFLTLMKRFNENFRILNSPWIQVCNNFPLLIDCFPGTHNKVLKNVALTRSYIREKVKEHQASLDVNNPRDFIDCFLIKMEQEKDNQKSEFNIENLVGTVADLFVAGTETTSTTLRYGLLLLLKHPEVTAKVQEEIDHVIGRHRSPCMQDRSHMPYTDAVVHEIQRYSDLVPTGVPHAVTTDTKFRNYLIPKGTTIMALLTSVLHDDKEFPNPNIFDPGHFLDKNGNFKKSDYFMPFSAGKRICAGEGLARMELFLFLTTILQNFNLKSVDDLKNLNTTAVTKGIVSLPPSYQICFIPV

rCYP2D6 = rCYP2D6 (Homo sapiens, UniProt P10635); test: Metabolic stability / reaction phenotyping with recombinant human CYP2D6
CYP2C19 = CYP2C19 (Homo sapiens, UniProt P33261); test: CYP inhibition in human liver microsomes, CYP2C19
[5] = cited from earlier work
rCYP2C8 = target: T5, rCYP2C8 (Homo sapiens, UniProt P10632); test: Metabolic stability / reaction phenotyping with recombinant human CYP2C8; conditions: 1 µM test compound; 100 pmol/mL; 30 min
T5 sequence (P10632 1-490): T4 sequence (P10632 1-490)

CYP3A4 [6] = target: T2, CYP3A4; test: biochemical
rCYP2C19 = rCYP2C19 (Homo sapiens, UniProt P33261); test: Metabolic stability / reaction phenotyping with recombinant human CYP2C19
[7] = 1 µM test compound, 100 pmol/mL, 30 min
[8] = human, recombinant enzyme, pH 7.4
[9] = human, recombinant human CYP1A2, 1 µM, pH 7.4
[10] = human, recombinant human CYP2C9, 1 µM, pH 7.4
[11] = human, human liver microsomes, pH 7.4, probe paclitaxel
[12] = human, recombinant human CYP2D6, 1 µM, pH 7.4
[13] = human, recombinant human CYP2C19, 1 µM, pH 7.4

Chain of rCYP2C19 (P33261 whole entry): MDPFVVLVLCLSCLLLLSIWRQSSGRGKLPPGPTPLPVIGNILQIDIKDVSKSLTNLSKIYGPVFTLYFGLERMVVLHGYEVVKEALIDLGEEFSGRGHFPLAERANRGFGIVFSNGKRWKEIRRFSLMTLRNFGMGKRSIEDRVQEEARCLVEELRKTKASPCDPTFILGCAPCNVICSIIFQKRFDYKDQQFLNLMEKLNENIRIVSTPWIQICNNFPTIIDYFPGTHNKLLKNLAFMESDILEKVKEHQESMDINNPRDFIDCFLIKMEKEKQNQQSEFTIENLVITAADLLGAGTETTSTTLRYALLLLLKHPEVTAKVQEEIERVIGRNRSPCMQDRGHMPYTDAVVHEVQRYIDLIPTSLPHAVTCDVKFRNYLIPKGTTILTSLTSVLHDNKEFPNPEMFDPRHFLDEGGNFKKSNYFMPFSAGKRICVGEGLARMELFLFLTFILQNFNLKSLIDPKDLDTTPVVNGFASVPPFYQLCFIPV
Chain of rCYP3A4 (P08684 whole entry): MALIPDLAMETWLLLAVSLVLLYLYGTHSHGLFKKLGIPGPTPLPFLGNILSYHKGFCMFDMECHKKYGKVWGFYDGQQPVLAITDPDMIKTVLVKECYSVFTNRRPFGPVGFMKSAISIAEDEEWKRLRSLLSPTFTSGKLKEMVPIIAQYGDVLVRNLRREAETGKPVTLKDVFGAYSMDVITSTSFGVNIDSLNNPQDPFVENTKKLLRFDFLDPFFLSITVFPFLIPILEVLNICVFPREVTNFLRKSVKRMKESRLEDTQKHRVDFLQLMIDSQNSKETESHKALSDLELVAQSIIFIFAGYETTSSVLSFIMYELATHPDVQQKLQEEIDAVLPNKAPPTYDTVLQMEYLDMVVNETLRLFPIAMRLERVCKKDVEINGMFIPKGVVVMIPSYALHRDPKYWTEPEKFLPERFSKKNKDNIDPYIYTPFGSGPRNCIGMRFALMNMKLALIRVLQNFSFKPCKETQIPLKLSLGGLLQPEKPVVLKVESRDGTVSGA
T2 sequence (P08684 2-503): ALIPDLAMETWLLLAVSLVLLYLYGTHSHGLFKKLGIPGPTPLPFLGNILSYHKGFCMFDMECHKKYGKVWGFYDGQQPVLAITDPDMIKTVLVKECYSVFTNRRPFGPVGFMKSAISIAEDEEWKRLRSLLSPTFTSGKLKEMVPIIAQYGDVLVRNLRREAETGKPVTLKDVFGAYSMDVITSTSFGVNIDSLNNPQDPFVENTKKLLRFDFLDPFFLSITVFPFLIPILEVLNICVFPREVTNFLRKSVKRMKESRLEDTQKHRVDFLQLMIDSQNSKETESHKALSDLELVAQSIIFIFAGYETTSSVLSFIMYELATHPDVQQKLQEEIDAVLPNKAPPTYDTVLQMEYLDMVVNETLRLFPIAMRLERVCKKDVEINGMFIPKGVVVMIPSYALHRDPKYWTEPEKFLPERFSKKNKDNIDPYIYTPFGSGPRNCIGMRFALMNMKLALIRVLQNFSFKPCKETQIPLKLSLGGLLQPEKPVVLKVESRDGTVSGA
Chain of rCYP2D6 (P10635 whole entry): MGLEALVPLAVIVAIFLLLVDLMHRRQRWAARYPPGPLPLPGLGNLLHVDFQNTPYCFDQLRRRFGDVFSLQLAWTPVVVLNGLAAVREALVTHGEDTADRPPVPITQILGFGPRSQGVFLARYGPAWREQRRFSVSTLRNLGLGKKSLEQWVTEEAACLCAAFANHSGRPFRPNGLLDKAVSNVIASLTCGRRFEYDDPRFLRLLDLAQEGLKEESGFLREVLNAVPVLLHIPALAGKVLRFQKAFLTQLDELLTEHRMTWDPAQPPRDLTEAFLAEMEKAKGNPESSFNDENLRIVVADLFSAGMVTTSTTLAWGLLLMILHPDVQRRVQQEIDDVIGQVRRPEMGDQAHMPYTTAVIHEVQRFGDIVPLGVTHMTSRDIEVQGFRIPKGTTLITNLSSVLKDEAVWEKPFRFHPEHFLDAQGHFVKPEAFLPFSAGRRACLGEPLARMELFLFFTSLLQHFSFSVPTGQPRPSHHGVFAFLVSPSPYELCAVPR
Chain of rCYP2C9 (P11712 whole entry): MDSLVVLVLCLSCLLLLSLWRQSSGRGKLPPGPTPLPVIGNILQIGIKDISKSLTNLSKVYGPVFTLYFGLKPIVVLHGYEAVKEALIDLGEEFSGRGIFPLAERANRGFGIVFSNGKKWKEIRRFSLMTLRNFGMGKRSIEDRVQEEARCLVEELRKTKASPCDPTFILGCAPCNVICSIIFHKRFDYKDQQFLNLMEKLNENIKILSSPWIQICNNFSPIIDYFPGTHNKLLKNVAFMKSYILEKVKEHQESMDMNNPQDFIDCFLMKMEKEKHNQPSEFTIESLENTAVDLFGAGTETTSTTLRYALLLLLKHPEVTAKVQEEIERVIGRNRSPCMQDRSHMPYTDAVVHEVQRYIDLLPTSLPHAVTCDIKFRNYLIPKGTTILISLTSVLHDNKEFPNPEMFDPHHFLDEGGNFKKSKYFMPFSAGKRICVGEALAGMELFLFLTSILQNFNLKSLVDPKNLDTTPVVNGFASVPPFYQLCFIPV
Chain of CYP2C19 (P33261 whole entry): as the sequence (P33261 whole entry) above
Chain of CYP2C9 (P11712 whole entry): as the sequence (P11712 whole entry) above

## CSc1nc2cc(Cl)c(Oc3cccc(Cl)c3Cl)cc2[nH]1 [Triclabendazole, reference compound]
[1]
  % Metabolized at 30 min Incubation with Human Liver Fractions/Enzymes Cytosol: 12.40%
CYP1A2
  IC50: 1070 nM
CYP3A4 [2]
  inhibition at 2 µM: < 0%
  inhibition at 10 µM: < 0%
CYP2C9
  IC50: 1170 nM
rCYP3A4; [7]
  % Metabolized at 30 min Incubation with Human Liver Fractions/Enzymes rCYP3A4: 11.70%
rCYP3A4; human, pH 7.4
  Predicted Microsomal Clint, CYP3A4: 4.604 µL/min/mg Protein
rCYP3A4; [8]
  % Contribution of CYP Enzymes (fmCYP) in Metabolism, CYP3A4: 4.02%
  rCYP Clint, CYP3A4: 0.041 µL/min/pmol
CYP3A4 [3]
  inhibition at 2 µM: 13.5%
  inhibition at 10 µM: 52.9%
rCYP1A2; [7]
  % Metabolized at 30 min Incubation with Human Liver Fractions/Enzymes rCYP1A2: 97.14%
rCYP1A2; [9]
  % Contribution of CYP Enzymes (fmCYP) in Metabolism, CYP1A2: 53.74%
  Predicted Microsomal Clint, CYP1A2: 61.600 µL/min/mg Protein
  rCYP Clint, CYP1A2: 1.185 µL/min/pmol
[4]
  % Metabolized at 30 min Incubation with Human Liver Fractions/Enzymes HLM: 51.68%
rCYP2C9; [7]
  % Metabolized at 30 min Incubation with Human Liver Fractions/Enzymes rCYP2C9: 55.00%
rCYP2C9; [10]
  % Contribution of CYP Enzymes (fmCYP) in Metabolism, CYP2C9: 22.29%
  Predicted Microsomal Clint, CYP2C9: 25.548 µL/min/mg Protein
  rCYP Clint, CYP2C9: 0.266 µL/min/pmol
CYP2C8; IC50 CYP 2C8, HLM
  IC50: 3310 nM
CYP2C8; [11]
  inhibition at 2 µM: 7.09%
  inhibition at 10 µM: 79.7%
rCYP2D6; [7]
  % Metabolized at 30 min Incubation with Human Liver Fractions/Enzymes rCYP2D6: 73.66%
rCYP2D6; [12]
  % Contribution of CYP Enzymes (fmCYP) in Metabolism, CYP2D6: 3.88%
  Predicted Microsomal Clint, CYP2D6: 4.448 µL/min/mg Protein
  rCYP Clint, CYP2D6: 0.445 µL/min/pmol
CYP2C19
  IC50: 250 nM
[5]; human patients at therapeutic doses of triclabendazole
  Cmax: 1160 nM
[5]; humans, standard dose of triclabendazole of 10 mg/kg
  peak concentration: 1.16 µM
rCYP2C8
  % Metabolized at 30 min Incubation with Human Liver Fractions/Enzymes rCYP2C8: 0.00%
CYP3A4 [6]
  IC50: 15100 nM
rCYP2C19; [7]
  % Metabolized at 30 min Incubation with Human Liver Fractions/Enzymes rCYP2C19: 94.55%
rCYP2C19; [13]
  % Contribution of CYP Enzymes (fmCYP) in Metabolism, CYP2C19: 16.07%
  Predicted Microsomal Clint, CYP2C19: 18.415 µL/min/mg Protein
  rCYP Clint, CYP2C19: 0.969 µL/min/pmol

From paper PMC6416464 (Drug Metabolism Letters, 2018)
